# Laboratory results published in patent US20040156869A1, “2-substituted quinazolin-4-ylamine analogues” (Neurogen Corporation, priority 2002, published 2004).
# pKi: −log10 of the molar value.
# Target: human capsaicin receptor (VR1) (Homo sapiens, UniProt Q8NER1)
# Experiment: Capsaicin receptor binding assay ([3H]RTX competition, VR1-transfected HEK293 membranes)
# human capsaicin receptor (VR1), sequence (Q8NER1 whole entry): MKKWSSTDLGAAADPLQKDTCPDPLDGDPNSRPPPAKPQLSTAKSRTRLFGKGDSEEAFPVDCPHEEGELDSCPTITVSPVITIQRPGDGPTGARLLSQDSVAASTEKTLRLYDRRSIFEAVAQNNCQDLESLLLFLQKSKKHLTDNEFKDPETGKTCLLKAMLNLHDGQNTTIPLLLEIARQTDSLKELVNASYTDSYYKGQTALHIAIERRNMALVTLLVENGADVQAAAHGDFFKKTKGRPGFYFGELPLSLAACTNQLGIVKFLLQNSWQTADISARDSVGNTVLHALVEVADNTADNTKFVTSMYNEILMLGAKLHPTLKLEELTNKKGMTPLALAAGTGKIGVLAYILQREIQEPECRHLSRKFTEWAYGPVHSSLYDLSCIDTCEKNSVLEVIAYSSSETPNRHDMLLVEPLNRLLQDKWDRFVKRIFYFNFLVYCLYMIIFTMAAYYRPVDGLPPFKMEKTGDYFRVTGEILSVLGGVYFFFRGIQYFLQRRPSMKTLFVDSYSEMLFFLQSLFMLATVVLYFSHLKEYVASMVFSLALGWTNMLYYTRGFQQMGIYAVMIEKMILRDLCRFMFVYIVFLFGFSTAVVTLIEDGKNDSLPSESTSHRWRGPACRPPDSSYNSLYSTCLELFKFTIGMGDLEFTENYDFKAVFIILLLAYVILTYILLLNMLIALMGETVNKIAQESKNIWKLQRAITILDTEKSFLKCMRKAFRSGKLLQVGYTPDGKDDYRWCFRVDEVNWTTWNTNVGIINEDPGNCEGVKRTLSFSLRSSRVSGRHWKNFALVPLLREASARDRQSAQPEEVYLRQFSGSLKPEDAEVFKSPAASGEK
row,Structure (SMILES),pKi
1,"Cc1cc(Nc2nc(COCC(C)C)nc3nc(-c4ncccc4Cl)ccc23)ccc1C(F)(F)F [Compound 178, [7-(3-Chloro-pyridin-2-yl)-2-isobutoxymethyl-pyrido[2,3-d]pyrimidin-4-yl]-(3-methyl-4-trifluoromethyl-phenyl)-amine]",> 6.00
2,"CC1c2ccccc2CCN1CCc1nc(Nc2ccc(C(F)(F)F)cc2)c2ccc(-c3ncccc3C(F)(F)F)cc2n1 (centres unmarked) [Compound 391, [2-[2-(1-Methyl-3,4-dihydro-1H-isoquinolin-2-yl)-ethyl]-7-(3-trifluoromethyl-pyridin-2-yl)-quinazolin-4-yl]-(4-trifluoromethyl-phenyl)-amine]",> 6.00
3,"CCN(CC)CC(C)(C)c1ccc(Nc2nc(COC)nc3nc(-c4ncccc4C)ccc23)cc1 [Compound 227, [4-(2-Diethylamino-1,1-dimethyl-ethyl)-phenyl]-[2-methoxymethyl-7-(3-methyl-pyridin-2-yl)-pyrido[2,3-d]pyrimidin-4-yl]-amine]",> 6.00
4,"Cc1cccnc1-c1ccc2c(Nc3ccc(C(C)C)cc3)nc(CN3CCOCC3)nc2c1 [Compound 712, (4-Isopropyl-phenyl)-[7-(3-methyl-pyridin-2-yl)-2-morpholin-4-ylmethyl-quinazolin-4-yl]-amine]",> 6.00
5,"Cc1cccnc1-c1ccc2c(Nc3ccc(C4(C#N)CCC4)cc3)nc(COCC(C)C)nc2n1 [Compound 151, 1-{4-[2-Isobutoxymethyl-7-(3-methyl-pyridin-2-yl)-pyrido[2,3-d]pyrimidin-4-ylamino]-phenyl}-cyclobutanecarbonitrile]",> 6.00
6,"CCOCc1nc(Nc2ccc(S(=O)(=O)C(F)(F)F)cc2)c2ccc(-c3ncccc3C)nc2n1 [Compound 140, [2-Ethoxymethyl-7-(3-methyl-pyridin-2-yl)-pyrido[2,3-d]pyrimidin-4-yl]-(4-trifluoromethanesulfonyl-phenyl)-amine]",> 6.00
7,"CCc1ccc(Nc2nc(COC)nc3cc(-c4ncccc4C(F)(F)F)cnc23)cc1 [Compound 52, (4-Ethyl-phenyl)-[2-methoxymethyl-7-(3-trifluoromethyl-pyridin-2-yl)-pyrido[3,2-d]pyrimidin-4-yl]-amine]",> 6.00
8,"COCC(C)(C)c1ccc(Nc2nc(COCC(C)C)nc3nc(-c4ncccc4C)ccc23)cc1 [Compound 215, [2-Isobutoxymethyl-7-(3-methyl-pyridin-2-yl)-pyrido[2,3-d]pyrimidin-4-yl]-[4-(2-methoxy-1,1-dimethyl-ethyl)-phenyl]-amine]",> 6.00
9,"COCc1nc(Nc2ccc(C(C)(C)C(C)=O)cc2)c2ccc(-c3ncccc3Cl)nc2n1 [Compound 213, 3-{4-[7-(3-Chloro-pyridin-2-yl)-2-methoxymethyl-pyrido[2,3-d]pyrimidin-4-ylamino]-phenyl}-3-methyl-butan-2-one]",> 6.00
10,"COCc1nc(Nc2ccc(C(C)C)cc2)c2ccc(-c3nccnc3Cl)nc2n1 [Compound 237, [7-(3-Chloro-pyrazin-2-yl)-2-methoxymethyl-pyrido[2,3-d]pyrimidin-4-yl]-(4-isopropyl-phenyl)-amine]",> 6.00
11,"OC1CCN(CCc2nc(Nc3ccc(C(F)(F)F)cc3)c3ccc(-c4ncccc4C(F)(F)F)cc3n2)CC1 [Compound 586, [2-(4-Hydroxy-piperidin-1-ylethyl)-7-(3-trifluoromethyl-pyridin-2-yl)-quinazolin-4-yl]-(4-trifluoromethyl-phenyl)-amine]",> 6.00
12,"Cc1cccnc1-c1ccc2c(Nc3ccc(C(C)C)cc3)nc(COCC(C)C)nc2n1 [Compound 130, [2-Isobutoxymethyl-7-(3-methyl-pyridin-2-yl)-pyrido[2,3-d]pyrimidin-4-yl]-(4-isopropyl-phenyl)-amine]",> 6.00
13,"CC(C)COCc1nc(Nc2ccc(C(C)(C)C#N)cc2)c2ccc(-c3ncccc3Cl)nc2n1 [Compound 179, 2-{4-[7-(3-Chloro-pyridin-2-yl)-2-isobutoxymethyl-pyrido[2,3-d]pyrimidin-4-ylamino]-phenyl}-2-methyl-propionitrile]",> 6.00
14,"Cc1ccccc1CN(C)Cc1nc(Nc2ccc(C(F)(F)F)nc2)c2ccc(-c3ncccc3C(F)(F)F)cc2n1 [Compound 354, [2-{[Methyl-(2-methyl-benzyl)-amino]-methyl}-7-(3-trifluoromethyl-pyridin-2-yl)-quinazolin-4-yl]-(6-trifluoromethyl-pyridin-3-yl)-amine]",> 6.00
15,"CC(C)COCc1nc(Nc2ccc(F)c(C(F)(F)F)c2)c2ccc(-c3ncccc3C(F)(F)F)nc2n1 [Compound 254, (4-Fluoro-3-trifluoromethyl-phenyl)-[2-isobutoxymethyl-7-(3-trifluoromethyl-pyridin-2-yl)-pyrido[2,3-d]pyrimidin-4-yl]-amine]",> 6.00
16,"CC(C)CCOCc1cc(Nc2ccc(C(F)(F)F)cc2)c2ccc(-c3ncccc3C(F)(F)F)nc2n1 [Compound 312, [2-(3-Methyl-butoxymethyl)-7-(3-trifluoromethyl-pyridin-2-yl)-[1,8]naphthyridin-4-yl]-(4-trifluoromethyl-phenyl)-amine]",> 6.00
17,"CCCN(CCC)Cc1nc(Nc2ccc(C(F)(F)F)cc2)c2ccc(-c3ncccc3C)cc2n1 [Compound 726, [2-Dipropylaminomethyl-7-(3-methyl-pyridin-2-yl)-quinazolin-4-yl]-(4-trifluoromethyl-phenyl)-amine]",> 6.00
18,"CC(C)(C)c1ccc(Nc2nc(CN3CCC[C@H]3C(=O)O)nc3cc(-c4ncccc4C(F)(F)F)ccc23)cc1 [Compound 744, (S)-1-[4-(4-tert-Butyl-phenylamino)-7-(3-trifluoromethyl-pyridin-2-yl)-quinazolin-2-ylmethyl]-pyrrolidine-2-carboxylic acid]",> 6.00
19,"FC(F)(F)c1cccc(Nc2nc(CN3CCOCC3)nc3cc(-c4ncccc4C(F)(F)F)cnc23)n1 [Compound 545, [2-Morpholin-4-ylmethyl-7-(3-trifluoromethyl-pyridin-2-yl)-pyrido[3,2-d]pyrimidin-4-yl]-(6-trifluoromethyl-pyridin-2-yl)-amine]",> 6.00
20,"COc1ccc(Nc2nc(COCC(C)C)nc3nc(-c4ncccc4C(F)(F)F)ccc23)cc1F [Compound 258, (3-Fluoro-4-methoxy-phenyl)-[2-isobutoxymethyl-7-(3-trifluoromethyl-pyridin-2-yl)-pyrido[2,3-d]pyrimidin-4-yl]-amine]",> 6.00
21,"CN1CCN(CCCc2nc(Nc3ccc(C(F)(F)F)cc3)c3ccc(-c4ncccc4C(F)(F)F)cc3n2)CC1 [Compound 573, [2-[3-(4-Methyl-piperazin-1-yl)-propyl]-7-(3-trifluoromethyl-pyridin-2-yl)-quinazolin-4-yl]-(4-trifluoromethyl-phenyl)-amine]",> 6.00
22,"O=C(O)C1CCCCN1Cc1nc(Nc2ccc(C(F)(F)F)cc2)c2ccc(-c3ncccc3C(F)(F)F)cc2n1 (centres unmarked) [Compound 737, 1-[4-(4-Trifluoromethyl-phenylamino)-7-(3-trifluoromethyl-pyridin-2-yl)-quinazolin-2-ylmethyl]-piperidine-2-carboxylic acid]",> 6.00
23,"Cc1cccnc1-c1ccc2c(Nc3ccc(C(F)(F)F)cc3)nc(CN3C[C@@H](C)O[C@@H](C)C3)nc2n1 [Compound 738, [2-(2,6-Dimethyl-morpholin-4-ylmethyl)-7-(3-methyl-pyridin-2-yl)-pyrido[2,3-d]pyrimidin-4-yl]-(4-trifluoromethyl-phenyl)-amine (cis)]",> 6.00
